# Data: ChEMBL document CHEMBL1821657, “Tritoniopsins A-D, cladiellane-based diterpenes from the South China Sea nudibranch Tritoniopsis elegans and its prey Cladiella krempfi” (J Nat Prod, 2011)
# Activity calls are given as the source filed them. The rule behind the calls is not given here.
# Assays:
# 3T3-L1 = test: Cytotoxicity against mouse 3T3L1 cells assessed as cell growth inhibition after 48 hrs; assay type: cell-based; conditions: 3T3-L1, 48 h
# C6 = test: Cytotoxicity against rat C6 cells assessed as cell growth inhibition after 48 hrs; assay type: functional, cell-based
# H9c2 = test: Cytotoxicity against rat H9c2 cells assessed as cell growth inhibition after 48 hrs; assay type: cell-based; conditions: H9c2, 48 h
# Caco-2 = test: Cytotoxicity against human Caco2 cells assessed as cell growth inhibition after 48 hrs; assay type: functional, cell-based; conditions: Caco-2, 48 h
# HeLa = test: Cytotoxicity against human HeLa cells assessed as cell growth inhibition after 48 hrs; assay type: functional, cell-based
compound,measurement,setting,value
C=C1C[C@H]2O[C@H]([C@@H]3[C@@H]4C[C@@H](OC[C@@H]4C)[C@](C)(O)[C@@H]32)[C@](C)(OC(=O)CCC)CC[C@@H]1OO [TRITONIOPSIN B],IC50,3T3-L1,40 µM
same,growth inhibition (GI),C6,inactive
same,IC50,H9c2,40 µM
same,IC50,Caco-2,40 µM
same,growth inhibition (GI),HeLa,inactive
